Values quoted from earlier work, collected in patent publication US20130237556A1, “BERBERINE ALKALOID AS A MEDICAMENT FOR PREVENTION AND TREATMENT OF NEURAL DISEASE” (HONG KONG BAPTIST UNIVERSITY, priority 2012, published 2013).

System: activated microglia
Settings: ibuprofen-treated animals; cited from earlier work

CC(C)Cc1ccc(C(C)C(=O)O)cc1 (stereo not shown) [ibuprofen]
decrease in activated microglia: 57%
